The text below walks through data of the NIST ThermoML archive (doi:10.1016/j.fluid.2013.06.048).

Values joined by “and” are separate entries in the source; they are usually repeats but may differ in a detail not shown here. Identical values can stand only once. Numbers after ± are expanded uncertainties.

The conditions of the series: Liquid; pulse-heating method.

On to `OCCCCO` [1,4-butanediol], for which the Critical pressure is 5400 ± 160 kPa and 6220 ± 160 kPa and 5520 ± 160 kPa; the Critical temperature was 728 ± 24 K and 727 ± 24 K and 723.8 ± 24 K. For the compound `OCCCCCO` [1,5-pentanediol], the Critical pressure came to 4000 ± 160 kPa and the Critical temperature was 731 ± 24 K. Take `OCCCCCCO` [1,6-hexanediol]: the Critical pressure was 3400 ± 160 kPa and 4080 ± 160 kPa. As for `OCCCCCCCCO` [1,8-octanediol], the Critical pressure stood at 2700 ± 160 kPa and the Critical temperature stood at 752 ± 24 K. As to `OCCCCCCCCCO` [1,9-nonanediol], the Critical pressure was 2400 ± 160 kPa and the Critical temperature came to 760 ± 24 K. `OCCCCCCCCCCO` [1,10-decanediol]: the Critical pressure is on record as 2200 ± 160 kPa and the Critical temperature came to 770 ± 24 K. The matching figures for `OCCCCCCCCCCCCO` [1,12-dihydroxydodecane]: 1930 ± 160 kPa and 798 ± 24 K. For `OCCCO` [propan-1,3-diol], the Critical pressure was 6380 ± 160 kPa and 6300 ± 200 kPa and 6550 ± 160 kPa; the Critical temperature was 721 ± 24 K and 722 ± 24 K and 718.2 ± 24 K.
